From US7432045B2 (priority 2003, dated 2008)
Square brackets hold non-standard residues; d marks the D form. Peptide text beside a SMILES is read from it. * marks the point of attachment. Biotin = O=C1N[C@H]2[C@H](CS[C@H]2CCCCC(=O)*)N1; Ahx = NCCCCCC(=O)O

Experiments:
in vitro = details: African green monkey
[1] = system: influenza A virus (Sydney 05/97,H3N2)
HSV-1 KOS mutant hrR3 = experiment: LacZ+ virus (hrR3) entry assay with pre-adsorbed virus (entry block); type: cell-based; details: FIG. 7B; read-out: inhibition of entry of pre-adsorbed virus IC50
Procedure: LacZ^+ virus (hrR3) entry assay: Confluent Vero cell cultures in 96-well microtiter plates were switched to Hepes-buffered serum-free DMEM, cooled on ice to 4° C. for 30 min, and infected with hrR3 for 1 hour at 4° C. in 40 μL of medium. Unattached virus was removed by rinsing with ice-cold medium. Treatments with antiviral peptide SEQ ID NO:1, referred to as EB, or a control peptide which comprised the RRKK tetra-peptide (SEQ ID NO:16) attached to a scrambled version of the membrane transiting peptide RRKKLAALPLVLAAPLAVLA (SEQ ID NO:17) (referred to as EBX), or mock-treatments with peptide-free medium were carried out in serum-free DMEM as indicated. Virus entry was initiated by transferring cultures to 37° C. To inactivate any remaining extracellular virus, cultures were rinsed with PBS and exposed to low pH citrate buffer (40 mM citric acid, 10 mM KCl, 135 mM NaCl, pH 3.0, according to Highlander et al., J. Virol. 61:3356 (1987), for 1 min at 23° C. The citrate was rinsed off with PBS and cultures were maintained in serum-supplemented DMEM until they were fixed with 0.5% gluteraldehyde in 5×PBS for 30 min at 23° C., stained for β-galactosidase activity for 1 hour or overnight at 23° C. with X-gal (Fisher Biotech; BP1615-1) in 1×PBS containing […], 1.3 mM K4Fe(CN)6, and 1.3 mM K3Fe(CN)6, and scored for the presence of blue […] cells.
In these studies, the hrR3 virus was pre-adsorbed to cells for 1 hour at 4° C. before ice cold 25 μM EB or EBX were added in serum-free DMEM. After an additional 1 hour at 4° C., cultures were shifted to 37° C. to initiate virus entry. At 15 min intervals following the temperature shift, any virus remaining outside the cells was inactivated by washing the cultures with low pH citrate buffer. Cultures were then rinsed and returned to peptide-free serum-supplemented DMEM until they were fixed and stained for β-galactosidase 8 hours after the temperature shift.
Two assays were used to assess the ability of the TAT peptides to inhibit infection of Vero cells with the hrR3 virus. In both assays, the virus was preadsorbed to cells at 4° C. and entry was initiated in the presence of peptide by shifting the cultures to a permissive temperature (30-37° C.). One hour later, the peptide was rinsed off. The entry blocking activity was measured in half of the cultures, in which any extracellular virus remaining after the peptide treatment was inactivated with low pH citrate buffer. The rest of the cultures were exposed to PBS instead of citrate buffer and used to measure virus inactivation. Virus inactivation depended on persistent effects of the peptide lasting for a period of eight hours. At the end of that period, all cultures were fixed and infected cells were detected by staining with X-gal.
Virus (m.o.i.=0.025) was preadsorbed to Vero cells for 1 h at 4° C. before cultures were exposed to TAT-C (FIG. 15A), bTAT-9X (FIG. 15B), or n50,51TAT-C (FIGS. 15C, 15D) for 1 h at 33 (FIGS. 15A, 15B), 31 (FIG. 15C), or 37° C. (FIG. 15D). […] Inhibition of entry was measured in the citrate-treated cultures, in which any remaining external virus was inactivated immediately following exposure to peptide (●). Persistent virus inactivation lasting, at least in part, for the 8 h period following exposure to peptide, was measured in the PBS-treated cultures (◯). The IC50s measured in these experiments are included in Table 5.

cornea = experiment: In vivo peptide toxicity, cornea; parameters: species or system BALB/C mice
Procedure: (i) Cornea: Four-6-week-old female BALB/C mice (Harlan Sprague Dawley, Indianapolis, Ind.) were anesthetized by halothane inhalation (3-5%). A 2.0 μL drop of serum-free 5×DMEM solution containing 6.1 mM EB, 6.1 mM EBX, 7.5 mM TAT-C, 7.5 mM n50,51 TAT-C, 7.5 mM TAT-Cd, or 11.2 mM bHOMd or serum-free DMEM only (control) was then placed on the cornea and the mice were returned to their cages. Each group consisted of 5 mice, except for 11.2 mM bHOMd, and 7.5 mM TAT-Cd, which consisted of 4 mice. Only the right eye in each mouse received the peptide. Treatments were given 4 times per day at least 2 hrs apart for 7 days. On days 1, 5, and 7, the mice were examined microscopically for evidence of blepharitis, punctate keratopathy, dendrite ulceration and geographic ulceration. Damage to the corneal epithelium was assessed by staining with 1.0% […] and examination under a microscope with blue light. Blepharitis was scored: 1+ for noticeable puffy eyelids, 2+ for puffy eyelids with moderate crusting, 3+ for eye 50% swollen shut with severe crusting, and 4+ for eye totally swollen and crusted shut (Brandt et al., 1992). Punctate keratopathy, dendrite ulceration, and geographic ulceration were scored: 1+ for <25% of the cornea involved, 2+ for 25-50% involved, 3+ for 50-75% involved, and 4+ for >75% involved. The mean disease score for each group of mice on each day was calculated by the sum of disease scores in each group on each day divided by the numbers of mice in that group. On day 7, following the last treatment, the mice were sacrificed and the eyes were removed, fixed in 10% formalin, embedded in paraffin, sectioned (5μ each), and stained with hematoxylin and eosin as we have described previously (Brandt et al., 1996). Sections were then examined for evidence of damage to the cornea, sclera, lens, and retina.

[2] = system: Vero, HeLa, CV-1PD, TM-1, DP-9, CEMx174, NIKS, W12E cells; experiment: MTS assay, eight cell lines; details: eight cell lines
HSV-1 KOS [3] = experiment: Plaque reduction assay; type: cell-based
Procedure: Cell culture and virus: The procedures for growing Vero cells and preparing high titer stocks of HSV-1 KOS as described in Grau et al., Invest. Ophthal. and Vis. Sci. 30: 2474 (1989) were utilized. Vero cells were maintained in carbonate-buffered DMEM supplemented with 5% calf serum and 5% fetal bovine serum (regular medium). For some studies, cells were switched to serum-free DMEM buffered with 25 mM HEPES (pH 7.4) and allowed to adapt to that medium for 30 min prior to experimental treatments. Vero cells were seeded into wells (0.28 cm^2) of microtiter plates either at 3.5×10^4 cells/well for use 1 day later (8×10^4 cells/well) or at 1×10^4 cells/well for use 3 days later (2×10^5 cells/well).
Plaque reduction assay: Confluent Vero cell cultures in microtiter plates were infected for 1 hour at 37° C. in 40 μL of medium. Except where indicated, peptide treatments in 40 μL of medium lasted from 1 hour before through 1 hour after infection. At the end of the adsorption period, the cultures were re-fed with 100 μL of regular medium. Plaque formation was scored 2 days later and the number of plaques scored per well was normalized to the number counted in the absence of peptide. Using an ocular micrometer, plaque size (π/2×L×S) was determined by measuring the largest plaque diameter (L) and the diameter at a 90° angle to that (S). The size of each of the first 40 scored plaques was measured except when a plaque included less than 10 rounded cells or touched the side of the well.

HSV-1 KOS [4] = details: data not shown

Compound: CC(C)C[C@H](NC(=O)[C@H](C)NC(=O)[C@H](CCCCN)NC(=O)[C@H](CC(C)C)NC(=O)[C@H](C)NC(=O)[C@H](CC(C)C)NC(=O)[C@H](CCCCN)NC(=O)[C@H](CC(C)C)NC(=O)[C@H](C)NC(=O)[C@H](CC(C)C)NC(=O)[C@H](CCCCN)NC(=O)CCCCCNC(=O)CCCC[C@@H]1SC[C@@H]2NC(=O)N[C@@H]21)C(=O)N[C@@H](CCCCN)C(=O)N[C@@H](C)C(=O)N[C@@H](C)C(=O)N[C@@H](CC(C)C)C(=O)N[C@@H](CCCCN)C(=O)N[C@@H](CC(C)C)C(=O)N[C@@H](C)C(N)=O [bKLA, b - KLALKLALKALKAALKLA-amide]
- cytotoxic effects (trypan blue staining) (MDCK cells): No cytotoxic effects
- IC50 (in vitro): 15 µM

Compound: CC[C@H](C)[C@H](NC(=O)[C@H](CCCCN)NC(=O)[C@@H](NC(=O)[C@H](CCC(N)=O)NC(=O)[C@H](CCCNC(=N)N)NC(=O)CCCCCNC(=O)CCCC[C@@H]1SC[C@@H]2NC(=O)N[C@@H]21)[C@@H](C)CC)C(=O)N[C@@H](Cc1c[nH]c2ccccc12)C(=O)N[C@@H](Cc1ccccc1)C(=O)N1CCC[C@H]1C(=O)N[C@@H](CC(N)=O)C(=O)N[C@@H](CCCNC(=N)N)C(=O)N[C@@H](CCCNC(=N)N)C(=O)N[C@@H](CCSC)C(=O)N[C@@H](CCCCN)C(=O)N[C@@H](Cc1c[nH]c2ccccc12)C(=O)N[C@@H](CCCCN)C(=O)N[C@@H](CCCCN)C(=O)N1CCC[C@H]1C(=O)NCC(=O)N[C@@H](Cc1ccc(O)cc1)C(=O)N[C@@H](C)C(=O)NCC(=O)N[C@@H](C)C(=O)N[C@H](C(=O)N[C@H](C(=O)N[C@@H](CC(N)=O)C(=O)N[C@@H](CC(=O)O)C(=O)N[C@@H](CC(C)C)C(=O)O)C(C)C)C(C)C [bHOM-9, b - RQIKIWFPNRRMKWKK-9] ({Biotin-Ahx}-RQIKIWFPNRRMKWKKPGYAGAVVNDL-OH)
- antiviral effect against influenza A virus versus cytotoxic effects [1]: antiviral and cytotoxic effects were inseparable
- IC50 (in vitro): 50 µM

Compound: CC(C)C[C@H](NC(=O)[C@H](CCCCN)NC(=O)[C@H](CCCCN)NC(=O)[C@H](CCCNC(=N)N)NC(=O)[C@@H](N)CCCNC(=N)N)C(=O)N[C@@H](C)C(=O)N[C@@H](C)C(=O)N[C@@H](CC(C)C)C(=O)N1CCC[C@H]1C(=O)N[C@@H](CC(C)C)C(=O)N[C@H](C(=O)N[C@@H](CC(C)C)C(=O)N[C@@H](C)C(=O)N[C@@H](C)C(=O)N1CCC[C@H]1C(=O)N[C@@H](CC(C)C)C(=O)N[C@@H](C)C(=O)N[C@H](C(=O)N[C@@H](CC(C)C)C(=O)N[C@@H](C)C(=O)O)C(C)C)C(C)C [EBX, RRKKLAALPLVLAAPLAVLA, reference compound] (H-RRKKLAALPLVLAAPLAVLA-OH)
- IC50 (HSV-1 KOS mutant hrR3): ~100 µM
- corneal pathology (cornea; mouse, in vivo): no evidence of corneal pathology
- cytotoxic effects (Vero cells): No cytotoxic effects
- cytotoxicity to cells (MTS), overall [2]: generally not cytotoxic

Compound: CC[C@@H](C)[C@@H](NC(=O)[C@@H](CCCCN)NC(=O)[C@H](NC(=O)[C@@H](CCC(N)=O)NC(=O)[C@@H](CCCNC(=N)N)NC(=O)CCCCCNC(=O)CCCC[C@@H]1SC[C@@H]2NC(=O)N[C@@H]21)[C@H](C)CC)C(=O)N[C@H](Cc1c[nH]c2ccccc12)C(=O)N[C@H](Cc1ccccc1)C(=O)N1CCC[C@@H]1C(=O)N[C@H](CC(N)=O)C(=O)N[C@H](CCCNC(=N)N)C(=O)N[C@H](CCCNC(=N)N)C(=O)N[C@H](CCSC)C(=O)N[C@H](CCCCN)C(=O)N[C@H](Cc1c[nH]c2ccccc12)C(=O)N[C@H](CCCCN)C(=O)N[C@H](CCCCN)C(N)=O [bHOMd, b - RQIKIWFPNRRMKWKK-amide] ({Biotin-Ahx}-[dR][dQ][dI][dK][dI][dW][dF][dP][dN][dR][dR][dM][dK][dW][dK][dK]-NH2)
- punctate keratopathy (cornea; calcein staining): very mild punctate keratopathy
- blepharitis (cornea; four times a day for seven days): mild blepharitis
- antiviral effect against influenza A virus versus cytotoxic effects [1]: blocks influenza A virus in the absence of cytotoxic effects
- cytotoxic effects (trypan blue staining) (MDCK cells): No cytotoxic effects

Compound: NH2 - RRKKAAVALLAVLLALLAPP-COOH (H-RRKKAAVALLAVLLALLAPP-OH) [EBPP]
- antiviral activity compared to EB (HSV-1 KOS [3]): twice as active
- activity compared to EB in yield reduction assay (HSV-1 KOS [4]): twice as active
